Each compound was assayed against T1, SARM1 (50-724) (Homo sapiens, UniProt Q6SZW1) (assay: biochemical).
T1 sequence (Q6SZW1 50-724): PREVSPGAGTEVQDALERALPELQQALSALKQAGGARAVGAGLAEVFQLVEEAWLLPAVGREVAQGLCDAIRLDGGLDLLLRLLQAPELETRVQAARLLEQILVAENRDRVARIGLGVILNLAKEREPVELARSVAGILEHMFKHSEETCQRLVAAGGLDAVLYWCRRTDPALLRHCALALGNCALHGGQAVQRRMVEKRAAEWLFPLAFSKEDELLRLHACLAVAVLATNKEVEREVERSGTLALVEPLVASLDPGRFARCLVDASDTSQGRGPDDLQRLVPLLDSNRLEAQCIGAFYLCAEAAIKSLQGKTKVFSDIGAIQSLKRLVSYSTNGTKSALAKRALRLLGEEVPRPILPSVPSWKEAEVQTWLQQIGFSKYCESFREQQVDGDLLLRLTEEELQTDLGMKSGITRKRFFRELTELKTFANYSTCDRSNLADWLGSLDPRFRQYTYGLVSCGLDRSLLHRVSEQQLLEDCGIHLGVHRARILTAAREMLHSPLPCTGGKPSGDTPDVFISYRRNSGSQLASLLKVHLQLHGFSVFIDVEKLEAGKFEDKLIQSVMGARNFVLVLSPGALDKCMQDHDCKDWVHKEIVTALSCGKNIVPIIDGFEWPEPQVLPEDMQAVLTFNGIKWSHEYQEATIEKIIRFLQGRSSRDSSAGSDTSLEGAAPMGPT
Method: An enzymatic assay was performed in a 384-well plate using Dulbecco's phosphate-buffered saline (PBS) as the reaction buffer. […] The reaction was initiated by adding a mixture of 200 μM nicotinamide mononucleotide (NMN) as activator and 100 μM NAD^+ as substrate. After 1 h of incubation at room temperature, the reaction was terminated with 10 times volume of 70% acetonitrile, then centrifuged at 3800 rpm for 10 min.

IC50 | Structure (SMILES)
< 100 nM | Cc1n[nH]c(=O)c2nc(NC(C)c3c(Cl)ccc(F)c3Cl)ccc12 (racemic) [Compound 314, 2-((1-(2,6-dichloro-3-fluorophenyl)ethyl)amino)-5-methylpyrido[2,3-d]pyridazin-8(7H)-one]
< 100 nM | CC(Nc1ccc2ccn(CC(N)=O)c(=O)c2c1)c1nn(C)c(C2CC2)c1Cl (racemic) [Compound 315, 2-(7-((1-(4-chloro-5-cyclopropyl-1-methyl-1H-pyrazol-3-yl)ethyl)amino)-1-oxoisoquinolin-2(1H)-yl)acetamide]
< 100 nM | Cc1n[nH]c(=O)c2cc(NC(C)c3nn(C)c(Cl)c3Cl)cc(F)c12 (racemic) [Compound 316, 7-((1-(4,5-dichloro-1-methyl-1H-pyrazol-3-yl)ethyl)amino)-5-fluoro-4-methylphthalazin-1(2H)-one]
< 100 nM | CC(Nc1ccc2c(c1)N(C(=O)CC(N)=O)CC2(C)C)c1sc(Cl)nc1Cl (racemic) [Compound 317, 3-(6-((1-(2,4-dichlorothiazol-5-yl)ethyl)amino)-3,3-dimethylindolin-1-yl)-3-oxopropanamide]
< 100 nM | CC(Nc1cc(F)c2c(c1)C(=O)NC2(C)C)c1nc(Cl)c(Cl)s1 (racemic) [Compound 318, 6-((1-(4,5-dichlorothiazol-2-yl)ethyl)amino)-4-fluoro-3,3-dimethylisoindolin-1-one]
< 100 nM | CC(Nc1ccc2cc[nH]c(=O)c2c1)c1nn(C2CC2)c(Cl)c1Cl (racemic) [Compound 321, 7-((1-(4,5-dichloro-1-cyclopropyl-1H-pyrazol-3-yl)ethyl)amino)isoquinolin-1(2H)-one]
< 100 nM | Cc1cn(CC(N)=O)c(=O)c2nc(NC(C)c3nn(C)c(Cl)c3Cl)ccc12 (racemic) [Compound 324, 2-(2-((1-(4,5-dichloro-1-methyl-1H-pyrazol-3-yl)ethyl)amino)-5-methyl-8-oxo-1,7-naphthyridin-7(8H)-yl)acetamide]
< 100 nM | CC(Nc1ccc2cc[nH]c(=O)c2c1)c1nn(C)c(C(F)F)c1Cl (racemic) [Compound 325, 7-((1-(4-chloro-5-(difluoromethyl)-1-methyl-1H-pyazol-3-yl)ethyl)amino)isoquinolin-1(2H)-one]
< 100 nM | Cc1c2ccc(NC(C)c3nc(Cl)c(Cl)s3)cc2nn1C1CCOCC1 (racemic) [Compound 327, N-(1-(4,5-dichlorothiazol-2-yl)ethyl)-3-methyl-2-(tetrahydro-2H-pyran-4-yl)-2H-indazol-6-amine]
< 100 nM | CC(Nc1cc(F)c2c(c1)C(=O)N(CC(N)=O)C2(C)C)c1nc(Cl)c(Cl)s1 (racemic) [Compound 328, 2-(5-((1-(4,5-dichlorothiazol-2-yl)ethyl)amino)-7-fluoro-1,1-dimethyl-3-oxoisoindolin-2-yl)acetamide]
< 100 nM | CC1N(C(=O)CC(N)=O)c2cc(NS(=O)(=O)c3cccc(Cl)c3Cl)ccc2C1(C)C (racemic) [Compound 329, 3-(6-((2,3-dichlorophenyl)sulfonamido)-2,3,3-trimethylindolin-1-yl)-3-oxopropanamide]
< 100 nM | Cc1nn(CC(N)=O)c(=O)c2nc(NC(C)c3nn(C)c(Cl)c3Cl)ccc12 (racemic) [Compound 330, 2-(2-((1-(4,5-dichloro-1-methyl-1H-pyrazol-3-yl)ethyl)amino)-5-methyl-8-oxopyrido[2,3-d]pyridazin-7(8H)-yl)acetamide]
< 100 nM | Cc1nn(C(=O)c2ccncc2)c2cc(NC(C)c3nc(Cl)c(Cl)s3)ccc12 (racemic) [Compound 331, (6-((1-(4,5-dichlorothiazol-2-yl)ethyl)amino)-3-methyl-1H-indazol-1-yl)(pyridin-4-yl)methanone]
< 100 nM | Cc1nn(CC(N)=O)c2cc(NC(C)c3nc(Cl)c(Cl)s3)cc(F)c12 (racemic) [Compound 337, 2-(6-((1-(4,5-dichlorothiazol-2-yl)ethyl)amino)-4-fluoro-3-methyl-1H-indazol-1-yl)acetamide]
< 100 nM | CC(Nc1cc(F)c2nc[nH]c(=O)c2c1)c1nsc(Cl)c1Cl (racemic) [Compound 338, 6-((1-(4,5-dichloroisothiazol-3-yl)ethyl)amino)-8-fluoroquinazolin-4(3H)-one]
< 100 nM | Cc1c2ccc(NC(C)c3snc(Cl)c3Cl)cc2nn1CC(N)=O (racemic) [Compound 341, 2-(6-((1-(3,4-dichloroisothiazol-5-yl)ethyl)amino)-3-methyl-2H-indazol-2-yl)acetamide]
< 100 nM | Cc1n[nH]c(=O)c2cc(NC(C)c3scc(Cl)c3Cl)ccc12 (racemic) [Compound 342, 7-((1-(3,4-dichlorothiophen-2-yl)ethyl)amino)-4-methylphthalazin-1(2H)-one]

IC50 | Structure (SMILES)
< 100 nM | Cc1nc(C(C)Nc2ccc3c(C)n(CC(N)=O)nc3c2)sc1Cl (racemic) [Compound 343, 2-(6-((1-(5-chloro-4-methylthiazol-2-yl)ethyl)amino)-3-methyl-2H-indazol-2-yl)acetamide]
< 100 nM | CC(Nc1nc2ccccc2s1)c1nc(Cl)c(Cl)s1 (racemic) [Compound 344, N-(1-(4,5-dichlorothiazol-2-yl)ethyl)benzo[d]thiazol-2-amine]
< 100 nM | CC(Nc1ccc2snc(C(N)=O)c2c1)c1nc(Cl)c(Cl)s1 (racemic) [Compound 345, 5-[1-(4,5-dichlorothiazol-2-yl)ethylamino]-1,2-benzothiazole-3-carboxamide]
< 100 nM | CC(Nc1ccc2snc(C(=O)N3CC(O)C3)c2c1)c1nc(Cl)c(Cl)s1 (racemic) [Compound 346, (5-((1-(4,5-dichlorothiazol-2-yl)ethyl)amino)benzo[d]isothiazol-3-yl)(3-hydroxyazetidin-1-yl)methanone]
< 100 nM | CC(Nc1ccc2nc[nH]c(=O)c2n1)c1c(F)ccc(Cl)c1Cl (racemic) [Compound 349, 6-((1-(2,3-dichloro-6-fluorophenyl)ethyl)amino)pyrido[3,2-d]pyrimidin-4(3H)-one]
100 to 500 nM | Cc1c(C#N)sc(C(C)Nc2ccc3c(C)n[nH]c(=O)c3c2)c1Cl (racemic) [Compound 350, 4-chloro-3-methyl-5-(1-((1-methyl-4-oxo-3,4-dihydrophthalazin-6-yl)amino)ethyl)thiophene-2-carbonitrile]
< 100 nM | CC(Nc1cc(F)c2ncn(CC(N)=O)c(=O)c2c1)c1ccc(F)c(Cl)c1Cl (racemic) [Compound 351, 2-(6-((1-(2,3-dichloro-4-fluorophenyl)ethyl)amino)-8-fluoro-4-oxoquinazolin-3(4H)-yl)acetamide]
< 100 nM | CC(Nc1cc(F)c2nc[nH]c(=O)c2c1)c1nccc(Cl)c1Cl (racemic) [Compound 352, 6-((1-(3,4-dichloropyridin-2-yl)ethyl)amino)-8-fluoroquinazolin-4(3H)-one]
< 100 nM | CC(Nc1ccc2cc[nH]c(=O)c2c1)c1csc(Cl)c1Cl (racemic) [Compound 353, 7-((1-(4,5-dichlorothiophen-3-yl)ethyl)amino)isoquinolin-1(2H)-one]
< 100 nM | CC(Nc1cc(F)c2nc[nH]c(=O)c2c1)c1cncc(Cl)c1Cl (racemic) [Compound 354, 6-((1-(4,5-dichloropyridin-3-yl)ethyl)amino)-8-fluoroquinazolin-4(3H)-one]
< 100 nM | CC(Nc1ccc2c(C(F)F)n(CC(N)=O)nc2c1)c1nc(Cl)c(Cl)s1 (racemic) [Compound 355, 2-(6-((1-(4,5-dichlorothiazol-2-yl)ethyl)amino)-3-(difluoromethyl)-2H-indazol-2-yl)acetamide]
< 100 nM | CC(Nc1ccc2c(Cl)n(CC(N)=O)nc2c1)c1nc(Cl)c(Cl)s1 (racemic) [Compound 361, 2-(3-chloro-6-((1-(4,5-dichlorothiazol-2-yl)ethyl)amino)-2H-indazol-2-yl)acetamide]
< 100 nM | Cc1c2c(F)cc(NC(C)c3c(F)ccc(Cl)c3Cl)cc2nn1CC(N)=O (racemic) [Compound 364, 2-(6-((1-(2,3-dichloro-6-fluorophenyl)ethyl)amino)-4-fluoro-3-methyl-2H-indazol-2-yl)acetamide]
< 100 nM | CC(Nc1ccc2c(C(F)F)n(CC(N)=O)nc2c1)c1c(F)ccc(Cl)c1Cl (racemic) [Compound 365, 2-(6-((1-(2,3-dichloro-6-fluorophenyl)ethyl)amino)-3-(difluoromethyl)-2H-indazol-2-yl)acetamide]
< 100 nM | CC(Nc1ccc2c(C(F)(F)F)n(CC(N)=O)nc2c1)c1nc(Cl)c(Cl)s1 (racemic) [Compound 366, 2-(6-((1-(4,5-dichlorothiazol-2-yl)ethyl)amino)-3-(trifluoromethyl)-2H-indazol-2-yl)acetamide]
< 100 nM | [2H]C(C)(Nc1ccc2c(C)n(CC(N)=O)nc2c1)c1nc(Cl)c(Cl)s1 (racemic) [Compound 376, 2-(6-((1-(4,5-dichlorothiazol-2-yl)ethyl-1-d)amino)-3-methyl-2H-indazol-2-yl)acetamide]
< 100 nM | Cc1sc(C(C)Nc2ccc3c(C)n(CC(N)=O)nc3c2)nc1Cl (racemic) [Compound 379, 2-(6-((1-(4-chloro-5-methylthiazol-2-yl)ethyl)amino)-3-methyl-2H-indazol-2-yl)acetamide]

Source: patent publication US20250320184A1 (SIRONAX LTD., priority 2022, published 2025)
